# Results from US4963580A, “Substituted 5-hydroxy-2,3-dihydrobenzothiophenes as inhibitors of leukotriene biosynthesis” (Merck & Co., Inc., priority 1989, dated 1990).
# Columns and labels:
# [1] = test system: production of leukotriene B4 (LTB4) in isolated human polymorphonuclear leukocytes (PMN); test: inhibition of LTB4 production in isolated human polymorphonuclear leukocytes (Human PMN); format: cell-based; conditions: Leukocyte, 5 min, LTB4 by RIA, A23187 10 μM, 37° C., read-out: Polymorphonuclear Leucocyte (PMN) Activity, Human PMN IC50
# Experimental: (§1) The assay is conducted as follows:
# A. Preparation of Human PMN. Human blood is obtained by antecubital venepuncture from consenting volunteers who denied having taken medication within the previous 7 days. The blood is immediately added to 10% (v/v) trisodium citrate (0.13 M) or 5% (v/v) sodium heparin (1000 IU/mL). PMNs are isolated from anticoagulated blood by dextran sedimentation and centrifugation through Ficoll Hypaque (specific gravity 1.077), essentially as described by Boyum. (Boyum, A., Scand. J. Clin. Lab. Invest. 1968, 21 (Supp 97), 77). Contaminating erthrocytes are removed by lysis following exposure to ammonium chloride (0.16 M) in Tris buffer (pH 7.65), and the PMNs resuspended at 5×10^5 cells/mL in HEPES (15 mM) buffered Hanks balanced salt solution containing Ca^2+ (1.4 mM) and Mg^2+ (0.7 mM), pH 7.4. Viability is assessed by Trypan blue exclusion and is typically greater than 98%.
# (§2) C. Generation and Radiommumoassay of LTB4. PMNs (0.5 mL; 2.5×10^5 cells) are placed in plastic tubes and incubated (37° C., 2 min) with test compounds at the desired concentration or vehicle control (DMSO, final concentration 0.2%). The synthesis of LTB4 is initiated by the addition of calcium inophore A23187 (final concentration 10 μM) or vehicle on control samples and allowed to proceed for 5 minutes at 37° C. The reactions are then terminated by the addition of cold methanol (0.25 mL) and samples of the entire PMN reaction mixture are removed for radiommunoassay of LTB4.
# (§3) Samples (50 μl ) of authentic LTB4 of known concentration in radiommunoassay buffer (RIA) buffer (potassium phosphate 1 mM; disodium EDTA 0.1 mM; Thimerosal 0.025 mM; gelatin 0.1%, pH 7.3) or PMN reaction mixture diluted 1:1 with RIA buffer are added to reaction tubes.
# Thereafter [3H]-LTB4 (10 nCu in 100 μl RIA buffer) and LTB4 antiserum (100 μL of a 1:3000 dilution in RIA buffer) are added and the tubes vortexed. Reactants are allowed to equilibrate by incubation overnight at 4° C. To separate antibody-bound from free LTB4, aliquots (50 μL) of activated charcoal (3% activated charcoal in RIA buffer containing 0.25% Dextran T-70) were added, the tubes vortexed, and allowed to stand at room temperature for 10 minutes prior to centrifugation (1500×g; 10 min; 4° C). The supernatents containing antibody-bound LTB4 are decanted into vials and Aquasol 2 (4 mL) was added. Radioactivity is quantified by liquid scintillation spectrometry. […] The specificity of the antiserium and the sensitivity of the procedure have been described in detail elsewhere. […] The amount of LTB4 produced in test and control approx. 20ng/10^6cells) samples are then calculated. Inhibitory dose response curves are constructed using a four parameter algorithm and from these the IC50 values are determined.
# [2] = test system: production of leukotriene B4 (LTB4) in isolated rat polymorphonuclear leukocytes (PMN); test: inhibition of LTB4 production in isolated rat polymorphonuclear leukocytes (Rat PMN); format: cell-based, rat (male Sprague Dawley); conditions: Leukocyte, 5 min, LTB4 by RIA, A23187 10 μM, 37° C., read-out: Polymorphonuclear Leucocyte (PMN) Activity, Rat PMN IC50
# Experimental: as §1
# B. Rat Peritoneal Polymorphonuclear leukocytes (PMN). Male Sprague Dawley rats were purchased from Taconic Farms, Germantown, NY. The animals were maintained on standard pellet diet and water ad lib. Elicited PMN were prepared from peritoneal exudates as follows: 8 ml of 12% sodium caseinate was injected intraperitoneally into male rats. After 18-20 hours, the rats were killed with CO2 and the peritoneal cavities were lavaged with Eagle's MEM (pH 7.7) without NaHCO3 but containing Earle's salts, L-glutamine, and 30 mM HEPES. The PMN were isolated by centrifugation, washed with MEM, filtered through lens paper to remove clumps, and adjusted to a concentration of 1×10^7 cells/ml.
# as §2, §3
# Thereafter [3H]-LTB4 (10 nCu in 100 μl RIA buffer) and LTB4 antiserum (100 μL of a 1:3000 dilution in RIA buffer) are added and the tubes vortexed. Reactants are allowed to equilibrate by incubation overnight at 4° C. To separate antibody-bound from free LTB4, aliquots (50 μL) of activated charcoal (3% activated charcoal in RIA buffer containing 0.25% Dextran T-70) were added, the tubes vortexed, and allowed to stand at room temperature for 10 minutes prior to centrifugation (1500×g; 10 min; 4° C). The supernatents containing antibody-bound LTB4 are decanted into vials and Aquasol 2 (4 mL) was added. Radioactivity is quantified by liquid scintillation spectrometry. […] The specificity of the antiserium and the sensitivity of the procedure have been described in detail elsewhere. (Rokach, J.; Hayes, E. C.; Griard, Y.; Lombardo. D. L.; Maycock, A. L.; Rosenthal, A. S.; Young, R. N.; Zamboni, R.; Zweerink, H. J. Prostaglandins Leukotrienes and Medicine 1984, 13, 21). The amount of LTB4 produced in test and control approx. 20ng/10^6cells) samples are then calculated. Inhibitory dose response curves are constructed using a four parameter algorithm and from these the IC50 values are determined.
# [3] = test system: production of leukotriene B4 (LTB4) in polymorphonuclear leukocytes (PMN); test: LTB4 inhibition in the above described in vitro test (PMN, species not stated); format: cell-based; conditions: Leukocyte, standard compounds
# [4] = test system: leukotriene biosynthesis in human polymorphonuclear leukocytes; conditions: known inhibitors of leukotriene biosynthesis; cited from earlier work
Compound,IC50 [1] [nM],IC50 [2] [nM],IC50 [3] [nM],activity in human polymorphonuclear leukocytes assay [4]
"C=CCc1c(O)ccc2c1CCS2 [R4 = --CH2 CH= CH2, R6 = H, 4-(propen-3-yl)-5-hydroxy-2,3-dihydrobenzothiophene]",2260,887,,
"CCCc1cc2c(cc1O)CCS2 [R4 = H, R6 = --C3 H8, 6-propyl-2,3-dihydro-5-hydroxybenzothiophene]",326,211,,
"CC(C)(C)c1cc2c(cc1O)CCS2 [R4 = H, R6 = --C4 H10, 6-t-butyl-2,3-dihydro-5-hydroxybenzothiophene]",142,207,,

# Second part, led by results:
IC50 [1] [nM],IC50 [2] [nM],IC50 [3] [nM],Compound,activity in human polymorphonuclear leukocytes assay [4]
319,190,,"C=CCc1cc2c(cc1O)CCS2 [R4 = H, R6 = --CH2 CH= CH2, 6-Allyl-5-hydroxy-2,3-dihydrobenzothiophene]",
,5230,,"Oc1ccc2c(c1)CCS2 [R4 = H, R6 = H, 5-Hydroxy-2,3-dihydrobenzothiophene]",
,,86,"CC(Cc1ccc(O)c(O)c1)C(C)Cc1ccc(O)c(O)c1 (stereo not shown) [nordihydroguaiacetic acid, nordihydroguaiaretic acid]",active in this assay
,,9250,O=C1CCN(c2ccccc2)N1 [phenidone],active in this assay
